Assay results taken from EP0086092A2, “Antifungal compositions” (priority 1982, dated 1983).
Several values for one entry are separate records, joined by “and”; a condition that tells them apart may be missing. Equal entries are not always repeated.

Assays:
Experiment in all cases: disc diffusion, zone of inhibition on seeded agar plates
Type in all cases: cell-based
Candida albicans B 311 = settings: for Zone Size / Zone Size Sabouarud Agar / Zone Size YNB agar / Zone Size B 311: 16-18 h; for Zone Size / Zone Size B 311: 28-37°C; for Zone Size Sabouarud Agar / Zone Size YNB agar: Table II, 37°C; for Zone Size YNB agar: lysine
Experimental: The antifungal activity of aculeacin A and the compositions of aculeacin A and fatty acids was measured by disc diffusion.
The effects of a number of fatty acids on the antifungal activity of aculeacin A were determined by utilizing seeded plates of Candida albicans B 311 in yeast nitrogen base (YNB) agar (Difco) with glucose as the carbon source. A composition containing one unit by weight of aculeacin A and 5 units of fatty acid or the sodium salt thereof was spotted on the seeded plates and the size of the zone of inhibition after 16-18 hours incubation at 28-37 °C was measured.
Additional fatty acids were tested to determine , if they increased the intrinsic activity of aculeacin A against C. albicans B 311 utilizing seeded plates of YNB agar (Difco) with lysine as the carbon source and seeded plates of Sabouarud dextrose agar (Difco). Compositions containg one µg of aculeacin A and various amounts of the fatty acid was spotted on the seeded plates and the size of the zone of inhibition after 16-18 hours incubation at 37 °C was measured.
The antifungal effects of compositions containing a single amount of oleic acid as the sodium salt while varying the amounts of aculeacin A were determined by utilizing seeded plates of Candida albicans B 311 in Sabouarud dextrose agar and measuring the zone of inhibition after 16-18 hours incubation at 28-37°C.
(§1) The antifungal effects of compositions containing a single amount of aculeacin A while varying the amounts. of oleic acid as the sodium salt were determined by utilizing seeded plates of Candida albicans strains B 311, BC 759 and B 3153A and measuring the zone of inhibition after 16-18 hours at 28-37°C. This test was also performed with linoleic acid and linolenic acid.
(§2) The seeded plates of Candida albicans strains B 311, BC 759, and B 3153A were prepared by inoculating 50 ml of trypticase soy broth (BBL) with one ml of the preserved frozen culture and incubating the inoculum at 37°C for 7 hours on a rotary shaker. Two milliliters of this culture were used to inoculate one liter of Sabouarud dextrose agar (Difco) at 50°C and 15 milliliters of the resultant medium poured into 150 mm petri-dishes.

Candida albicans B 3153A = settings: Table IV-a; aculeacin A 0.40 µg, oleic acid 0 µg; 16-18 h, 28-37°C
Experimental: (§3) The antifungal activity of aculeacin A and the compositions of aculeacin A and fatty acids was measured by disc diffusion. Potentiation of antifungal activity was examined by three different methods employing: (1) a single concentration of aculeacin A and a single concentration of known fatty acids; '(2) various concentrations of aculeacin A with a single concentration of individual fatty acids; and (3) various concentrations of fatty acids with a single concentration of aculeacin A. The antifungal activities of aculeacin A and the fatty acids were separately checked as controls.
as §1, §2

Candida albicans BC 759 = settings: Table IV-a; aculeacin A 0.40 µg, oleic acid 0 µg; 16-18 h, 28-37°C
Experimental: as §3, §1, §2

For aculeacin A [reference compound], the “Zone Size” value (Candida albicans B 311; Table I, YNB agar, glucose as carbon source, aculeacin A alone, no fatty acid) was 15 mm, the “Zone Size Sabouarud Agar” value (Candida albicans B 311; Sabouarud dextrose agar, aculeacin A 1 µg, no fatty acid) was 13 mm and 15 mm and the “Zone Size YNB agar” value (Candida albicans B 311; YNB agar, aculeacin A 1 µg, no fatty acid) was 15 mm and 16 mm. For the same compound, the “Zone Size” value (Candida albicans B 311; Table III, Sabouarud dextrose agar, aculeacin A 0.312 µg, oleic acid 0 µg) was “trace”, the “Zone Size” value (Candida albicans B 311; Table III, Sabouarud dextrose agar, aculeacin A 0.625 µg, oleic acid 0 µg) was 10 mm and the “Zone Size” value (Candida albicans B 311; Table III, Sabouarud dextrose agar, aculeacin A 1.25 µg, oleic acid 0 µg) was 14-16 mm. For the same compound, the “Zone Size” value (Candida albicans B 311; Table III, Sabouarud dextrose agar, aculeacin A 2.5 µg, oleic acid 0 µg) was 19 mm, the “Zone Size B 311” value (Candida albicans B 311; Table IV-a, aculeacin A 0.40 µg, oleic acid 0 µg) was 10 mm and the “Zone Size B 311” value (Candida albicans B 311; Tables IV-b, IV-c, aculeacin A 0.625 µg, fatty acid 0 µg) was 16 mm. The “Zone Size B 3153-A” value (Candida albicans B 3153A) was 12 mm and the “Zone Size BC 759” value (Candida albicans BC 759) was 13 mm.

With γ-Linoleic Acid the “Zone Size Sabouarud Agar” value (Candida albicans B 311; Sabouarud dextrose agar, aculeacin A 0 µg, fatty acid 500 µg alone) was 0 mm, the “Zone Size Sabouarud Agar” value (Candida albicans B 311; Sabouarud dextrose agar, aculeacin A 0 µg, fatty acid 1000 µg alone) was 0 mm and the “Zone Size Sabouarud Agar” value (Candida albicans B 311; Sabouarud dextrose agar, aculeacin A 0 µg, fatty acid 2000 µg alone) was 0 mm. For the same compound, the “Zone Size Sabouarud Agar” value (Candida albicans B 311; Sabouarud dextrose agar, composition of aculeacin A 1 µg + fatty acid 500 µg) was 20 mm, the “Zone Size Sabouarud Agar” value (Candida albicans B 311; Sabouarud dextrose agar, composition of aculeacin A 1 µg + fatty acid 1000 µg) was 24 mm and the “Zone Size Sabouarud Agar” value (Candida albicans B 311; Sabouarud dextrose agar, composition of aculeacin A 1 µg + fatty acid 2000 µg) was 25 mm. The “Zone Size YNB agar” value (Candida albicans B 311; YNB agar, aculeacin A 0 µg, fatty acid 500 µg alone) was 0 mm, the “Zone Size YNB agar” value (Candida albicans B 311; YNB agar, aculeacin A 0 µg, fatty acid 1000 µg alone) was 0 mm and the “Zone Size YNB agar” value (Candida albicans B 311; YNB agar, aculeacin A 0 µg, fatty acid 2000 µg alone) was 0 mm. The “Zone Size YNB agar” value (Candida albicans B 311; YNB agar, composition of aculeacin A 1 µg + fatty acid 500 µg) was 14 mm, the “Zone Size YNB agar” value (Candida albicans B 311; YNB agar, composition of aculeacin A 1 µg + fatty acid 1000 µg) was 15 mm and the “Zone Size YNB agar” value (Candida albicans B 311; YNB agar, composition of aculeacin A 1 µg + fatty acid 2000 µg) was 22 mm. For the same compound, the “increase in the intrinsic activity of aculeacin A” value (Candida albicans B 311; composition of 2000 units by weight fatty acid to one unit aculeacin A, Table II test) was “surprising increase in the intrinsic activity of aculeacin A”.

In the case of `CCCCCCCCCC(=O)O` [Decanoic Acid], the “Zone Size” value (Candida albicans B 311; Table I, YNB agar, glucose as carbon source, composition of 1 unit by weight aculeacin A + 5 units fatty acid) is reported as 17 mm.
